Columns and labels:
[1] = biological target: T1, TAMRA-nNOS/PSD-95-PDZ1-2 interaction (Homo sapiens, UniProt P29475+P78352, V36C); experiment: 'direct' FP assay, TAMRA-nNOS / PDZ1-2 (saturation and inhibition); type: binding
T1 construct: nNOS-PDZ (12–130, human); PDZ1-2 (61-249); made in house; host or cells: E. coli
From the text: nNOS-PDZ (12–130, human) and α-Syntrophin-PDZ (82–200, human), both comprising an N-terminal His-tag/FXa-site sequence ([sequence]), were likewise expressed in E. coli and purified by HisTrap chromatography followed by gel-filtration as described in details previously[19]. To make the TAMRA-labelled nNOS-PDZ, mutant nNOS-PDZ (V36C) protein was generated by standard site-directed mutagenesis and characterized as described previously[19]. […]

[2] = biological target: T2, TAMRA-nNOS/PSD-95-PDZ1 interaction (Homo sapiens, UniProt P29475+P78352, V36C); experiment: 'direct' FP assay, TAMRA-nNOS / PDZ1 (saturation and inhibition); type: binding
T2 construct: nNOS-PDZ (12–130, human); PDZ1 (61-151); made in house; host or cells: E. coli
Protocol: The assay was established by creating a fluorescent version of nNOS-PDZ by TAMRA-labelling nNOS-PDZ via an introduced cysteine residue (V36C). […] However, up to 7.3 μM no inhibition of TAMRA-nNOS/PSD-95-PDZ interactions could be measured (data not shown).
(a) Saturation curves between TAMRA-nNOS (5 nM) and PDZ1, PDZ2, and PDZ1-2 of PSD-95. […] Error bars indicate SEM based on three individual measurements.
nNOS-PDZ (12–130, human) and α-Syntrophin-PDZ (82–200, human), both comprising an N-terminal His-tag/FXa-site sequence ([…]), were likewise expressed in E. coli and purified by HisTrap chromatography followed by gel-filtration as described in details previously. To make the TAMRA-labelled nNOS-PDZ, mutant nNOS-PDZ (V36C) protein was generated by standard site-directed mutagenesis and characterized as described previously. […]
(§1) Incubation time was 10–15 minutes (room temperature), and the assay was performed in a 1 × TBS buffer (150 mM NaCl, 10 mM Tris, pH 7.4) using black flat-bottom 384-well plates (Corning Life Sciences, NY) and a Safire2 plate-reader (Tecan, Männedorf, Switzerland). […] TAMRA- and Cy5-probes were measured at excitation/emission values of 530/585 nm (bandwidth = 20 nm) and 635/670 nm (bandwidth = 15 nm), respectively. […]

PDZ2 of PSD-95 = biological target: T3, PDZ2 of PSD-95 (Homo sapiens, UniProt P78352); experiment: FP inhibition assay, Cy5-GluN2B probe / PDZ2; type: binding; settings: concentrations reaching 500–1800 μM; Cy5-GluN2B 50 nM; [PDZ2] = 6 μM
T3 construct: PDZ2 (155-249); made in house; host or cells: E. coli BL21-DE3 pLysS
Protocol: Fluorescent probes were made by attaching fluorophores (Cy5) to C-terminal 10- or 11-mer (C10 or C11) peptide ligands representing canonical and natural occurring protein partners (Supplementary Table S1). […] (Fig. 2).
(b) Cy5-GluN2B as probe (50 nM), [PDZ2] = 6 μM. (c) Cy5-CRIPT as probe (50 nM), [PDZ3] = 5 μM. […] Error bars indicate SEM based on three individual measurements. […]
as §1
FP values were fitted to the general equation: Y = Bottom + (Top–Bottom)/[1 + (10^(X-logIC50)*HillSlope)], where X is the logarithmic value of peptide/compound concentration, and Y is the experimental FP values. Competitive inhibition constants, Ki values, were calculated from the IC50 values to quantify affinities between test substance and protein[42]. […]

PSD-95/GluN2B = tested on: PSD-95/GluN2B; design: method as in PMID 21102461; settings: cited from earlier work
NMDA receptor = tested on: NMDA receptor; design: method as in PMID 21102461; settings: cited from earlier work
[3] = tested on: animal ischemic stroke models; design: method as in PMID 21102461; settings: not when the nNOS gene was knocked out; cited from earlier work
neurons = tested on: neurons; design: method as in PMID 21102461; settings: cited from earlier work
[4] = tested on: NMDA receptor-mediated NO synthesis; design: method as in PMID 21102461; settings: cited from earlier work
nNOS [5] = tested on: nNOS; design: method as in PMID 21102461; settings: cited from earlier work
nNOS [6] = tested on: nNOS; design: method as in PMID 21102461; settings: cited from earlier work; remark: listed apart in the source
nNOS/PSD-95 interaction = tested on: nNOS/PSD-95 interaction; design: method as in PMID 21102461; settings: extracts from glutamate- or ischemia-induced cultured neurons and cortical brain; cited from earlier work
[7] = up to 7.3 μM (fluorescence artefacts above), data not shown

| inhibition of TAMRA-nNOS/PDZ1-2 interaction [1, 7] | inhibition of TAMRA-nNOS/PDZ1 interaction [2, 7] | inhibition of probe-PDZ interaction (PDZ2) (PDZ2 of PSD-95) | inhibition of TAMRA-nNOS/PDZ1-2 interaction ([1]; tested at up to 1200 μM, TAMRA-nNOS 5 nM, PDZ1-2 0.3 μM) | inhibition of TAMRA-nNOS/PDZ1 interaction ([2]; tested at up to 1200 μM, TAMRA-nNOS 5 nM, PDZ1 7.5 μM) | SMILES | inhibition of PSD-95/GluN2B (PSD-95/GluN2B) | effect on NMDA receptor function (ion flux) (NMDA receptor) | neuroprotective properties in animal ischemic stroke models [3] | neuroprotective properties in neurons (neurons) | NMDA receptor-mediated NO synthesis [4] | effect on nNOS expression (nNOS [5]) | effect on nNOS catalytic activity (nNOS [6]) | inhibition of nNOS/PSD-95 interaction (co-immunoprecipitation) (nNOS/PSD-95 interaction) |
| --- | --- | --- | --- | --- | --- | --- | --- | --- | --- | --- | --- | --- | --- |
| no inhibition | no inhibition | did not inhibit | – | – | Oc1c(Cl)cc(Cl)cc1CNc1ccc2[nH]nnc2c1 [IC87201, 2-((1H-Benzo[d][1–3]triazol-5-ylamino)methyl)-4-6-dichlorophenol] | – | – | – | – | – | – | – | – |
| – | – | did not inhibit | no activity | no activity | O=C(O)c1ccc(NCc2cc(Cl)cc(Cl)c2O)cc1O [ZL006, 4-((3,5-Dichloro-2-hydroxybenzyl)amino)-2-hydroxybenzoic acid] | not inhibited | did not affect | robust neuroprotective properties | robust neuroprotective properties | inhibited | did not affect | did not affect | inhibit |
